Consider ten compounds from publication PMC8954944 (Molecules, 2022).

Assay [1] has as its system c-myc G-quadruplex DNA FRET probe (FAM/TAMRA) (DNA, G4) TGGGGAGGGTGGGGAGGGTGGGGAAGG
Kind of assay: FRET melting. The conditions noted are these: 100 mM KCl, 10 mM Na3AsO4; 10 mM Tris-HCl pH 7.4; 0.2 μM DNA; complex 0.15 or 0.30 μM, not given.

The subject of assay [2] is c-myc G-quadruplex DNA (DNA, G4) TGGGGAGGGTGGGGAGGGTGGGGAAGG
Kind of assay: UV-vis titration. The conditions noted are these: 100 mM KCl.

The test system is the same in assay [3]. Kind of assay: fluorescent intercalator displacement. The conditions noted are these: 100 mM KCl, thiazole orange 1 μM displaced, DNA 0.5 μM.
Assay [4] concerns human breast cancer MCF-7 cells. Kind of assay: MTT assay, MCF-7. The format is cell-based. The following applies: 72 h, 570 nm.
Assay [5] deals with human lung cancer A549 cells. Kind of assay: MTT assay, A549. The following applies: 72 h, 570 nm. The class given is cell-based. (In general: Tetrazolium dyes change colour on reduction, which living cells bring about.)
The test system of assay [6] is human liver carcinoma HepG2 cells. Kind of assay: MTT assay, HepG2. The class given is cell-based. The following applies: 72 h, 570 nm.
The subject of assay [7] is human glioblastoma U87 cells. Kind of assay: MTT assay, U87. The following applies: 72 h, 570 nm. The format is cell-based.
For assay [8], the system named is human keratinocyte Hacat cells. Kind of assay: Cytotoxic activity against Hacat cells. The format is cell-based. The conditions noted are these: 72 h incubation. Here is the method: The cytotoxic activity of the ligands and arene Ru(II)-modified compounds […] 1 . The cytotoxic activities of complexes against human keratinocyte […] 72 h incubation. Comp. L1 L2 3 6 […] 7. Multiple gene expression in glioblastoma multiforme Figure S20. Multiple gene expression in glioblastoma multiforme(Copyright © 2017 […], Boxi Kang. Zhang's Lab.). The darker the color, the higher the gene expression in glioblastoma multiforme. As shown in the heat map, c-myc gene is highly expressed in glioblastoma multiforme (GBM) compared with other G-quadruplex DNA (Tel, Bcl-2, c-kit, k-ras). 8. […]

Another assay has as its system human normal liver cells. Kind of assay: Toxicity to human normal liver cells. The conditions noted are these: read-out: IC50 human normal liver cells.
Another assay deals with c-myc G-quadruplex DNA. Kind of assay: UV–vis absorption titration with c-myc G-quadruplex DNA. The class given is binding. The following applies: 10 mM Tris-HCl buffer (pH 7.4), 100 mM KCl, [DNA]=100 μM. Here is the method:
Electron spectroscopy is one of the most widely used techniques to evaluate the binding ability between metal complexes and DNA. UV–vis spectra titration experiments were conducted to further clarify the binding behavior of these complexes with c-myc G-quadruplex DNA.
The intramolecular c-myc G-quadruplex DNA structure was prepared by incubating Pu22 in a 10 mM Tris-HCl buffer (pH 7.4) containing 100 mM KCl, which was heated to 95 °C for 5 min, cooled to room temperature overnight, and stored at 4 °C for 24 h. The binding parameters of the arene Ru(II) complexes and c-myc G-quadruplex DNA were measured at room temperature using the UV–vis absorption spectra (Shimadzu UV-2550 spectrophotometer). […] The intrinsic binding constant (Kb) was calculated using the following:[DNA]/(εa − εf) = [DNA]/(εb − εf) + 1/[Kb(εb − εf)](2)
In the formula, εa, εf, and εb are the apparent coefficients, and the free and fully bound forms of the metal complex extinction coefficients, respectively. […] Kb is the ratio of the slope to the intercept.

The mark [9] stands for this setting: 10 mM Tris-HCl pH 7.4, room temperature, 20 μM complex.
[10] abbreviates: 10 mM Tris-HCl pH 7.4, room temperature.

The structures appear in SMILES notation.

In general, ΔTm refers to the change in melting temperature against a reference sample. In the case of `Cc1ccc(C(C)C)cc1.Fc1ccc(-c2nc3c4cccnc4c4ncccc4c3[nH]2)c(F)c1.[Cl-].[Ru+2]`, the ΔTm in assay [1] amounted to 0.4 °C. Also, the Kb in assay [2] (setting [9]) is given as ~ 14.6 × 10^6 M^-1. Besides, the DC50 in [3] (setting [10]) was found to be 15.6 µM.
On to `Cc1ccc(C(C)C)cc1.Fc1cccc(-c2nc3c4cccnc4c4ncccc4c3[nH]2)c1F.[Cl-].[Ru+2]`, for which the shift in melting temperature (ΔTm) in assay [1] turned out to be 5.07 °C. In assay [2] (setting [9]), the Kb is recorded as ~ 134 × 10^6 M^-1. In assay [3] (setting [10]), this compound showed a DC50 of 10.26 µM.
As for `Cc1ccccc1.Fc1ccc(-c2nc3c4cccnc4c4ncccc4c3[nH]2)c(F)c1.[Cl-].[Ru+2]`, the shift in melting temperature (ΔTm) in assay [1] is 6.03 °C. The Kb in assay [2] was ~ 41.1 × 10^6 M^-1. The DC50 in assay [3] (setting [10]) was determined as 10.8 µM.
With `Cc1ccccc1.Fc1cccc(-c2nc3c4cccnc4c4ncccc4c3[nH]2)c1F.[Cl-].[Ru+2]`, the shift in melting temperature (ΔTm) in [1] is 15.05 °C. Also, the Kb in assay [2] is ~ 110 × 10^6 M^-1. Further, the DC50 in [3] (setting [10]) turned out to be 9.93 µM.
Take `Fc1ccc(-c2nc3c4cccnc4c4ncccc4c3[nH]2)c(F)c1`: in [2] (10 mM Tris-HCl pH 7.4, DNA 100 μM, no significant absorption change), the binding entry is given as “weak”.
As to `Fc1ccc(-c2nc3c4cccnc4c4ncccc4c3[nH]2)c(F)c1.[Cl-].[Ru+2].c1ccccc1`, the thermal shift (ΔTm) in [1] amounted to 7.23 °C. In assay [2] (setting [9]), the Kb is reported as ~ 48.3 × 10^6 M^-1. The compound also gave a DC50 in assay [3] (10 mM Tris-HCl pH 7.4, text b19 prints 7.8) of 7.6 µM.
Regarding `Fc1cccc(-c2nc3c4cccnc4c4ncccc4c3[nH]2)c1F.[Cl-].[Ru+2].c1ccccc1`, the shift in melting temperature (ΔTm) in [1] is 13.09 °C. In addition, in assay [2] (setting [9]), the Kb is on record as ~ 67.5 × 10^6 M^-1. Further, in [3] (setting [10]), the DC50 turned out to be 6.6 µM.
A word on the IC50: it is the midpoint of a concentration-inhibition curve. Regarding `N.N.[Cl][Pt][Cl]` [Cisplatin, reference compound], the IC50 in assay [4] is 15.3 ± 0.18 µM; in [5] it was 17.3 ± 0.26 µM; in assay [6] it was 9.9 ± 0.06 µM; in assay [7] it was 32.6 ± 0.85 µM.
With `Fc1cccc(-c2nc3c4cccnc4c4ncccc4c3[nH]2)c1F` [L1, 2-(2,3-Di-fluorophenyl) Imidazole [4,5f][1,10]-Phenanthroline], the IC50 was determined as 4.25 ± 0.18 µM in assay [4]; 7.99 ± 0.05 µM in assay [5]; 0.29 ± 0.01 µM in assay [6]; 14.3 ± 0.47 µM in assay [7]; 1.85 ± 0.03 µM in assay [8]; 0.34 µM with human normal liver cells.
Turning to `Fc1ccc(-c2nc3c4cccnc4c4ncccc4c3[nH]2)c(F)c1` [L2, 2-(2,4-Di-fluorophenyl) Imidazole[4,5f][1,10]-Phenanthroline], in the assay on c-myc G-quadruplex DNA, the “UV absorption peak of the ligand after the addition of DNA” value is reported as “did not change significantly”. Also, the concentration for half-maximal inhibition (IC50) in [4] is 1.48 ± 0.09 µM; in assay [5], 3.42 ± 0.13 µM; in [6], 0.12 ± 0.01 µM; in [7], 5.87 ± 0.27 µM; in assay [8], 2.72 ± 0.06 µM; in the assay with human normal liver cells, 0.18 µM.
